Experiments:
[1] = Body weight and survival of xenografted mice under ICA-1 treatment
Description: Briefly, nine female athymic nude mice, weighing 17 to 23 grams, were divided into 3 groups: Group 1, mice received human glioblastoma xenografts and were treated with saline controls (n=3); Group 2, mice received human glioblastoma xenografts and were treated with ICA-1 (80 mg/kg/day; 20 μM) immediately after glioma implantation (n=3); Group 3, mice received human glioblastoma xenografts and were treated with ICA-1 (80 mg/kg/day, 20 μM) when the tumor reached 100 mm^3 on day 5 post implantation (n=3).
Human glioblastoma cell line U-87 MG, a commonly-studied human grade IV glioblastoma-astrocytoma, epithelial-like cell line, was injected subcutaneously into right flank (1×10^6 cells/flank in 0.1 ml PBS) of the mice. The cell injection site was marked. After glioblastoma implantation, ICA-1 (80 mg/kg/day; 20 μM) was subcutaneously injected, daily, into and around the tumor/cell injection area of Groups 2 and 3 mice; Group 1 mice was treated with vehicle. Tumor volume was calculated using the following formula: length×width×width×½.

[2] = system: Human glioblastoma cell line U-87 MG; experiment: Human glioblastoma U-87 MG subcutaneous xenograft in athymic nude mice, tumor volume; assay type: in vivo, female athymic nude mice
Description: The cell injection site was marked.

[3] = Group 2: ICA-1 80 mg/kg/day daily from implantation

Question: What does the source list for `NC(=O)c1ncn(C2CC(COP(=O)(O)O)C(O)C2O)c1N` (stereo not drawn) [ICA-1, 1H-imidazole-4-carboxamide, 5-amino-1-[2,3-dihydroxy-4-[(phosphonooxy)methyl]cyclopentyl]-[1R-(1α, 2β, 3β, 4α)]]?
Answer: body weight [1, 3]: lost significant weight; survival / lethality [1, 3]: died seven days post ICA-1 treatment; body weight ([1]; Group 3: ICA-1 80 mg/kg/day for 4 days (day 5-day 9 post implantation)): did not exhibit significant weight loss; tumor growth ([2]; Group 2: ICA-1 80 mg/kg/day (20 μM) s.c. daily into and around tumor area, started immediately after glioma implantation): prevented tumor growth; tumor growth ([2]; Group 3: ICA-1 80 mg/kg/day (20 μM) s.c. daily, started when tumor reached 100 mm^3 on day 5 post implantation): prevented tumor growth; glioma volume ([2]; Group 3: ICA-1 80 mg/kg/day, 4 days of treatment (day 5-day 9 post implantation)): reduced glioma volume; glioma size after the ICA-1 treatment was terminated ([2]; Group 3: after termination of treatment on day 9 post implantation): continued to reduce; glioma size relative to that of the control mice ([2]; Group 3: end of study period, 8 days after termination of ICA-1 treatment (80 mg/kg/day, day 5-day 9)): 53%

Source: patent publication US8716266B2, “Use of PKC-iota inhibitors for the treatment of glioma” (University of South Florida, priority 2011, dated 2014)
